# Measured values: patent publication US7893067B2, “Cysteine protease inhibitors” (Medivir AB, priority 2007, dated 2011)
# Where two headings read alike, the source gives them in different places.
# Legend:
# [1] = Metabolic stability in human hepatic cytosol assay; assay type: in vitro ADME
# Method: Compounds of the invention and the indicated comparative examples were tested for metabolic stability in a cytosol assay in which the compounds were incubated with commercially available human hepatic cytosol fractions and the disappearance of the compound monitored by HPLC or LC/MS. Pooled human liver cytosol fractions are less likely to represent outlier individuals than blood from a single individual and can be stored frozen, unlike whole blood. The cytosol assay thus provides a consistent assay testbed as a guide to the stability of a compound in the in vivo environment, such as when exposed to whole blood.
# In short, test compounds (2 μM) are incubated in pooled human liver cytosol (Xenotech LLC Lenexa US, 1 mg/mL protein in 0.1M phosphate buffer, pH 7.4) at 37° centigrade over a one hour period. The incubations are initiated by the addition of 1 mM NADPH co-factor. Timed sub-samples were taken at 0, 20, 40 and 60 minutes and “crash precipitated” by the addition of 3 volumes of ice-cold acetonitrile. The samples were centrifuged at reduced temperature and the supernatants were separated and analyzed by LC-MS-MS.
# [2] = typical reference compounds (markers) for the Caco-2 assay; cited from earlier work
# [3] = target: T1, baculovirus-expressed human cathepsin S (Homo sapiens, UniProt P25774); test: Cathepsin S Ki determination; assay type: biochemical
# T1 construct: made in house
# Method: 280 μl/well of 12.5% DMSO are added to rows B-H of two columns of a 96 deep well polypropylene plate. 70 μl/well of substrate is added to row A. 2×250 μl/well of assay buffer (100 mM Na phosphate, 100 mM NaCl, pH 6.5) is added to row A, mixed, and double diluted down the plate to row H. 100 μl/well of assay buffer is added to columns 2-5 and 7-12 of 4 rows of a 96 well V bottom polypropylene plate. 200 μl/well of assay buffer is added to columns 1 and 6. […] Add 90 μl assay buffer containing 1 mM DTT and 2 nM cathepsin S to each well of rows B-H and 180 μl to row A. Mix row A using a multichannel pipette and double dilute to row G. Mix row H and read in the fluorescent spectrophotometer. […] The second test compound is added to column 6 of the top row, the third to column 1 of the second row etc. Add 1 μl of comparator to column 6 of the bottom row. Mix column 1 and double dilute to column 5. Mix column 6 and double dilute to column 10. Using an 8-channel multistepping pipette set to 5×10 μl, distribute 10 μl/well of substrate to the 384 well assay plate. Distribute the first column of the substrate dilution plate to all columns of the assay plate starting at row A. The tip spacing of the multichannel pipette will correctly skip alternate rows. Distribute the second column to all columns starting at row B. Using a 12-channel multistepping pipette set to 4×10 μl, distribute 10 μl/well of inhibitor to the 384 well assay plate. Distribute the first row of the inhibitor dilution plate to alternate rows of the assay plate starting at A1. The tip spacing of the multichannel pipette will correctly skip alternate columns. Similarly, distribute the second, third and fourth rows to alternate rows and columns starting at A2, B1 and B2 respectively. Mix 20 ml assay buffer and 20 μl 1M DTT. Add sufficient cathepsin S to give 2 nM final concentration. Using the a distributor such as a Multidrop 384, add 30 μl/well to all wells of the assay plate and read in fluorescent spectrophotomoter such as an Ascent. Fluorescent readings, (excitation and emission wavelengths 390 nm and 460 nm respectively, set using bandpass filters) reflecting the extent of enzyme cleavage of the fluorescent substrate, notwithstanding the inhibitor, are linear rate fitted for each well. Fitted rates for all wells for each inhibitor are fitted to the competitive inhibition equation using SigmaPlot 2000 to determine V, Km and Ki values. Potential inhibitors are screened using the above assay with variable concentrations of test compound. Reactions were initiated by addition of enzyme to buffered solutions of substrate and inhibitor. Ki values were calculated according to equation 1 [formula] where v0 is the velocity of the reaction, V is the maximal velocity, S is the concentration of substrate with Michaelis constant of KM, and/is the concentration of inhibitor.
# human cathepsin L = human cathepsin L (Homo sapiens, UniProt P07711); test: Cathepsin L Ki; assay type: biochemical
# Method: The procedure above with the following amendments is used for the determination of Ki for cathepsin L.
# The enzyme is commercially available human cathepsin L (for example Calbiochem). The substrate is H-D-Val-Leu-Lys-AMC available from Bahcem. The assay buffer is 100 mM sodium acetate 1 mM EDTA, pH5.5) The DMSO stock (10 mM in 100% DMSO) is diluted to 10% in assay buffer. Enzyme is prepared at 5 nM concentration in assay buffer plus 1 mM dithiothreitol just before use. 2 ul of 10 mM inhibitor made up in 100% DMSO is dispensed into row A. 10 ul of 50 uM substrate (=1/200 dilution of 10 mM stock in DMSO, diluted in assay buffer)
# (§1) Potential inhibitors are screened using the above assay with variable concentrations of test compound. Reactions were initiated by addition of enzyme to buffered solutions of substrate and inhibitor. Ki values were calculated according to equation 1
# (§2) [formula] where v0 is the velocity of the reaction, V is the maximal velocity, S is the concentration of substrate with Michaelis constant of KM, and/is the concentration of inhibitor.
# [4] = target: T2, human recombinant cathepsin K (Homo sapiens, UniProt P43235); test: Determination of cathepsin K proteolytic catalytic activity (Ki); assay type: biochemical
# T2 construct: made in house; host or cells: not fixed: E coli, Pichia or Baculovirus systems named as options
# T2 sequence (P43235 115-329): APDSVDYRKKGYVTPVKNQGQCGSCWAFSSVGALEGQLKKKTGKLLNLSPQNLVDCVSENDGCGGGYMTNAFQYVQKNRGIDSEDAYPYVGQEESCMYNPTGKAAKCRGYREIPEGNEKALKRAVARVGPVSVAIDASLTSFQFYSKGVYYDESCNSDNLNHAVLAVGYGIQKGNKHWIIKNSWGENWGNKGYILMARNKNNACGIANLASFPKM
# Method: Convenient assays for cathepsin K are carried out using human recombinant enzyme, such as that described in PDB.
# The recombinant cathepsin K can be expressed in a variety of commercially available expression systems including E coli, Pichia and Baculovirus systems. The purified enzyme is activated by removal of the prosequence by conventional methods.
# Standard assay conditions for the determination of kinetic constants used a fluorogenic peptide substrate, typically H-D-Ala-Leu-Lys-AMC, and were determined in either 100 mM Mes/Tris, pH 7.0 containing 1 mM EDTA and 10 mM 2-mercaptoethanol or 100 mM Na phosphate, imM EDTA, 0.1% PEG4000 pH 6.5 or 100 mM Na acetate, pH 5.5 containing 5 mM EDTA and 20 mM cysteine, in each case optionally with […] as stabiliser. The enzyme concentration used was 5 nM. The stock substrate solution was prepared at 10 mM in DMSO. Screens were carried out at a fixed substrate concentration of 60 μM and detailed kinetic studies with doubling dilutions of substrate from 250 μM. The total DMSO concentration in the assay was kept below 3%. All assays were conducted at ambient temperature. Product fluorescence (excitation at 390 nm, emission at 460 nm) was monitored with a Labsystems Fluoroskan Ascent fluorescent plate reader. Product progress curves were generated over 15 minutes following generation of AMC product.
# as §1, §2
# [5] = Caco-2 permeability (Papp); assay type: in vitro ADME; details: human; Caco-2 assay, standard concentration 10 μM
# Method: The transport plate comprises 3 rows of 4 wells.
# Determination of the cumulative fraction absorbed, FAcum, versus time. FAcum is calculated from: […]
# A linear relationship should be obtained.
# [6] = 2 μM in pooled human liver cytosol, 1 mg/mL protein, pH 7.4, 37°, 1 mM NADPH
# [7] = representative values from specific batches of compound/enzyme/assay occasion
# T1 sequence (P25774 115-331): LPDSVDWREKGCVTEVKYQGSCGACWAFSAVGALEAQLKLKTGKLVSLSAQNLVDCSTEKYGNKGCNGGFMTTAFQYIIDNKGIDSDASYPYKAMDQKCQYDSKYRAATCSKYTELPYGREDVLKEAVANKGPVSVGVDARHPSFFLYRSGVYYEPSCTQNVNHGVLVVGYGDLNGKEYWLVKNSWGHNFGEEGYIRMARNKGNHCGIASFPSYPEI
# Chain of human cathepsin L (P07711 114-333): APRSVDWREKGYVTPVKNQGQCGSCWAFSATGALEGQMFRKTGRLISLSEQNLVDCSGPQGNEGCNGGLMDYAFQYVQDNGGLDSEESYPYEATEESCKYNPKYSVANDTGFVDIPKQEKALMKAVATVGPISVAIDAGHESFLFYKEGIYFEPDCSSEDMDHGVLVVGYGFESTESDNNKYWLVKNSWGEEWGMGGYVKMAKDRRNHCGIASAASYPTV
SMILES,"half-life at 2 μM [1, 6] [h]","Ki ([3]; Table 1, class symbols) [nM]","Ki [3, 7] [nM]","Ki (human cathepsin L; Table 1, class symbols) [nM]",Ki (human cathepsin L; [7]) [nM],"Ki ([4]; Table 1, class symbols) [nM]","Ki [4, 7] [nM]",also measured
CC(C)C[C@H](NC(=O)c1ccc(-c2csc(N3CCN(C)CC3)n2)c(F)c1)C(=O)N1C[C@@H](Cl)[C@H]2OCC(=O)[C@H]21 [Example 11],3,,,,,,,
"CC(C)C[C@H](NC(=O)c1ccc(-c2csc(N3CCN(C)CC3)n2)cc1)C(=O)N1C[C@H](Cl)[C@H]2OCC(=O)[C@H]21 [Comparative Example 1, reference compound]",0.4,,,,,,,
"Cc1sc(N2CCN(C)CC2)nc1-c1ccc(C(=O)N[C@@H](CC(C)C)C(=O)N2CC[C@H]3OCC(=O)[C@H]32)cc1 [Comparative Example 2, reference compound]",1.2,,,,,,,cytosol half life ([1]; human liver cytosol): a little over an hour
CN(Cc1cnc2nc(N)nc(N)c2n1)c1ccc(C(=O)N[C@@H](CCC(=O)O)C(=O)O)cc1 [Methotrexate],,,,,,,,% absorption in man [2]: 20%
"CC(C)C[C@H](NC(=O)c1ccc(-c2csc(N3CCN(C)CC3)n2)cc1)C(=O)N1C[C@@H](Cl)[C@H]2OCC(=O)[C@H]21 [Example 6, N—[(S)-1-((3aS,6R,6aS)-6-chloro-3-oxo-hexahydro-furo[3,2-b]pyrrole-4-carbonyl)-3-methyl-butyl]-4-[2-(4-methyl-piperazin-1-yl)-thiazol-4-yl]benzamide]",,1000 to 5000,4000,501 to 1000,890,< 50,1.5,"t1/2 minutes [1, 6]: >5 h; half-life at 2 μM ([1]; pooled human liver cytosol, pH 7.4, human liver cytosol, read-out: cytosol half life): > 5 h"
N[C@@H](Cc1ccccc1)C(=O)O [L-Phenylalanine],,,,,,,,% absorption in man [2]: 100%
"Cc1sc(N2CCN(C)CC2)nc1-c1ccc(C(=O)N[C@@H](CC(C)C)C(=O)N2C[C@H](F)[C@H]3OCC(=O)[C@H]32)cc1 [Comparative Example 3, reference compound]",1.67 to 2.5,,,,,,,
"Cc1sc(N2CCN(C)CC2)nc1-c1ccc(C(=O)N[C@@H](CC(C)C)C(=O)N2C[C@@H](Cl)[C@H]3OCC(=O)[C@H]32)cc1 [Example 5, N-[1-(6-chloro-3-oxo-hexahydro-furo[3,2-b]pyrrol-4-carbonyl)-3-methyl-butyl]-4-[5-methyl-2-(4-methyl-piperazin-1-yl)-thiazol-4-yl]-benzamide]",3.3,5000 to 10000,7500,501 to 1000,880,< 50,1.6,
OC[C@@H](O)[C@@H](O)[C@H](O)[C@H](O)CO [Mannitol],,,,,,,,% absorption in man [2]: 16%
"CN1CCN(c2nc(-c3ccc(C(=O)N[C@H](C(=O)N4C[C@@H](Cl)[C@H]5OCC(=O)[C@H]54)C4CCCCC4)cc3)cs2)CC1 [Example 7, N-[2-((3aS,6R,6aS)-6-Chloro-3-oxo-hexahydro-furo[3,2-b]pyrrole-4-yl)-1-S-cyclohexyl-2-oxo-ethyl]-4-[2-(4-methyl-piperazin-1-yl)-thiazol-4-yl]-benzamide]",,1000 to 5000,1700,1000 to 5000,1200,< 50,4.2,
"CN1CCN(c2nc(-c3ccc(C(=O)N[C@@H](CC(C)(C)F)C(=O)N4C[C@@H](Cl)[C@H]5OCC(=O)[C@H]54)cc3)cs2)CC1 [Example 8, N—[(S)-1-((3aS,6R,6aS)-6-chloro-3-oxo-hexahydro-furo[3,2-b]pyrrole-4-carbonyl)-3-fluoro-3-methyl-butyl]-4-[2-(4-methyl-piperazin-1-yl)-thiazol-4-yl]benzamide]",,> 10000,13000,1000 to 5000,2900,< 50,3.3,
"CC(C)C[C@H](NC(=O)c1ccc(-c2csc(N3CCN(C)CC3)n2)c(F)c1)C(=O)N1C[C@@H](Cl)[C@H]2OCC(=O)[C@H]21 [Example 10, N—[(S)-1-((3aS,6R,6aS)-6-Chloro-3-oxo-hexahydro-furo[3,2-b]pyrrole-4-carbonyl)-3-methyl-butyl]-3-fluoro-4-[2-(4-methyl-piperazin-1-yl)-thiazol-4-yl]-benzamide]",,1000 to 5000,4700,50 to 500,490,< 50,3.4,"Papp at 120 min, 10 μM [5]: 5.2 ×10⁻⁶ cm/s"
"CC(C)C[C@H](NC(c1ccc(-c2ccc(S(C)(=O)=O)cc2)cc1)C(F)(F)F)C(=O)N1C[C@@H](Cl)[C@H]2OCC(=O)[C@H]21 (stereo in doubt) [Example 13, 6-Chloro-4-{4-methyl-2-[2,2,2-trifluoro-1-(4′-methanesulfonyl-biphenyl-4-yl)-ethylamino]-pentanoyl}-tetrahydro-furo[3,2-b]pyrrol-3-one]",,> 10000,,1000 to 5000,,< 50,,
